Assay results published in patent US12428408B2, “Fused heterocyclic mescaline derivatives” (Enveric Biosciences Canada Inc., priority 2022, dated 2025).

Columns and labels:
alpha2A (h) = target: T1, alpha2A (h) (Homo sapiens, UniProt P08913); experiment: Competition assay to measure binding affinity at alpha2A receptor; conditions: test ligand 10 μM, [3H]RX 821002 1 nM; for inhibition at 10 µM: read-out: α-2A, percent of control-specific binding
T1 construct: host or cells: CHO cells
T1 sequence (P08913 1-465): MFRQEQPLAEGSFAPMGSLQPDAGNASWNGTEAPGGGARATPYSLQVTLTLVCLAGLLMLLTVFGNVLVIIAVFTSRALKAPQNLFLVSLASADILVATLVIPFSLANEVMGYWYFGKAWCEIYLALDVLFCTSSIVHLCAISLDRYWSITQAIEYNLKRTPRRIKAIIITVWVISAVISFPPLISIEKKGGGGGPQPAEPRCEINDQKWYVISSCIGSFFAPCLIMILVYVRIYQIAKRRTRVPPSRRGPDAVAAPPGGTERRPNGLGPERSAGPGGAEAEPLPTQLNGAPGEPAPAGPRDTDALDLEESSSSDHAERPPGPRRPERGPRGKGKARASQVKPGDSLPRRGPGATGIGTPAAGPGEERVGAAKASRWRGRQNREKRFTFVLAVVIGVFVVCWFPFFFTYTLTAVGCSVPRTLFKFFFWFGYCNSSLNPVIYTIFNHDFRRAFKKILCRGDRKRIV

5-HT2C (h) = target: T2, 5-HT2C (h) (Homo sapiens, UniProt P28335); experiment: Competition assay to measure binding affinity at 5-HT2C receptor; conditions: test ligand 10 μM; [125I](±)DOI 0.1 nM
T2 construct: host or cells: HEK-293 cells
T2 sequence (P28335 33-458): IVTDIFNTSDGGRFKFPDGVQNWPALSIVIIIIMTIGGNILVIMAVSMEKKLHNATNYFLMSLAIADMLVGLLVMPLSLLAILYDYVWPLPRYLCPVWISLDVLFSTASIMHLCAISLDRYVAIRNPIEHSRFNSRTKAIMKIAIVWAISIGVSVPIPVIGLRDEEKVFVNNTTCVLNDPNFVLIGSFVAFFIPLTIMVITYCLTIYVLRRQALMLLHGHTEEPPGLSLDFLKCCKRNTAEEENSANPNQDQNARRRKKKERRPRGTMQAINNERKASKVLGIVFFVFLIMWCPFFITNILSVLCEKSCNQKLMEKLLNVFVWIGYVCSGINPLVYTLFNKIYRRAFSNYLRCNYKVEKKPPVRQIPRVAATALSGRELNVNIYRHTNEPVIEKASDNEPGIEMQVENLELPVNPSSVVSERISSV

D3 (h) = target: T3, D3 (h) (Homo sapiens, UniProt P35462); experiment: Competition assay to measure binding affinity at D3 receptor; conditions: test ligand 10 μM; [3H]methylspiperone […]
T3 construct: host or cells: CHO cells

5-HT2B (h) = target: T4, 5-HT2B (h) (Homo sapiens, UniProt P41595); experiment: Competition assay to measure binding affinity at 5-HT2B receptor; conditions: test ligand 10 μM; [3H]mesulergine 2 nM
T4 construct: host or cells: CHO cells

5-HT1B (h) = target: T5, 5-HT1B (h) (Homo sapiens, UniProt P28222); experiment: Competition assay to measure binding affinity at 5-HT1B receptor; conditions: test ligand 10 μM; [3H]GR125743 1 nM
T5 construct: host or cells: Chem-1 (RBL) cells

5-HT1D (r) = target: T6, 5-HT1D (r) (Rattus norvegicus, UniProt P28565); experiment: Competition assay to measure binding affinity at 5-HT1D receptor; conditions: test ligand 10 μM; [3H]serotonin 1 nM
T6 construct: host or cells: CHO cells

D2 (h) = target: T7, D2 (h) (Homo sapiens, UniProt P14416); experiment: Competition assay to measure binding affinity at D2L receptor; conditions: test ligand 10 μM; [3H]methylspiperone 0.3 nM
T7 construct: host or cells: HEK-293 cells

DAT (h) = target: T8, DAT (h) (Homo sapiens, UniProt Q01959); experiment: Competition assay to measure binding affinity at dopamine transporter (DAT); conditions: test ligand 10 μM; [3H]BTCP 4 nM
T8 construct: host or cells: CHO cells

NET (h) = target: T9, NET (h) (Homo sapiens, UniProt P23975); experiment: Competition assay to measure binding affinity at norepinephrine transporter (NET); conditions: test ligand 10 μM; [3H]nisoxetine 1 nM
T9 construct: host or cells: CHO cells

MT1 (ML1A) (h) = target: T10, MT1 (ML1A) (h) (Homo sapiens, UniProt P48039); experiment: Competition assay to measure binding affinity at MT1 receptor; conditions: test ligand 10 μM; [125I]2-iodomelatonin 0.01 nM
T10 construct: host or cells: CHO cells

[1] = target: T11, human serotonin transporter (SERT) (Homo sapiens, UniProt P31645); experiment: biochemical; type: binding
T11 construct: purchased PerkinElmer RBHSTM400UA

5-HT7 (h) = target: T12, 5-HT7 (h) (Homo sapiens, UniProt P34969); experiment: Competition assay to measure binding affinity at 5-HT7 receptor; conditions: test ligand 10 μM; [3H]LSD 4 nM
T12 construct: host or cells: HEK-293 cells

5-HT1A receptor = target: T13, 5-HT1A receptor (Homo sapiens, UniProt P08908); experiment: 5-HT1A receptor radioligand competition assay (SPA); type: binding
T13 construct: purchased Perkin Elmer 6110501400UA
T13 sequence (P08908 1-422): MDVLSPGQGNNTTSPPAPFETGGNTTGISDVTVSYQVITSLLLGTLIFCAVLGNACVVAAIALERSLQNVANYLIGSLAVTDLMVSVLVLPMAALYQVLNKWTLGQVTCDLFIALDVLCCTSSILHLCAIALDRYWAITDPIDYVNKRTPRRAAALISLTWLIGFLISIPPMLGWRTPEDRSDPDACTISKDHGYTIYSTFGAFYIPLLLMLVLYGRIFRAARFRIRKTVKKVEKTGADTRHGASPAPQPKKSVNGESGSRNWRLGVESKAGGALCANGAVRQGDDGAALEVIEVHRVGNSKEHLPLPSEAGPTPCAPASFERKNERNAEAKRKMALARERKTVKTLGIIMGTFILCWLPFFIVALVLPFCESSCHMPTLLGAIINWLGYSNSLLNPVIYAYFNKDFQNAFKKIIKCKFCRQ

T10 sequence (P48039 whole entry): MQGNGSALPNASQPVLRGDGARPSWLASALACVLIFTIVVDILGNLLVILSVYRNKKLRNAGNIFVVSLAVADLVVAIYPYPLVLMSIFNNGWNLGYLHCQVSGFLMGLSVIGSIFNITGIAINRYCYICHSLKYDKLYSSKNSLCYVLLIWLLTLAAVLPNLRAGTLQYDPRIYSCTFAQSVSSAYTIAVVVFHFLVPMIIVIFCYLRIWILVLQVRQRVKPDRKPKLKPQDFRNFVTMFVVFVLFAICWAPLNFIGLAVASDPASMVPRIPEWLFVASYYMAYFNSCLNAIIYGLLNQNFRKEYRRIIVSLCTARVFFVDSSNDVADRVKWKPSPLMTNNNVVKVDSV
T8 sequence (Q01959 whole entry): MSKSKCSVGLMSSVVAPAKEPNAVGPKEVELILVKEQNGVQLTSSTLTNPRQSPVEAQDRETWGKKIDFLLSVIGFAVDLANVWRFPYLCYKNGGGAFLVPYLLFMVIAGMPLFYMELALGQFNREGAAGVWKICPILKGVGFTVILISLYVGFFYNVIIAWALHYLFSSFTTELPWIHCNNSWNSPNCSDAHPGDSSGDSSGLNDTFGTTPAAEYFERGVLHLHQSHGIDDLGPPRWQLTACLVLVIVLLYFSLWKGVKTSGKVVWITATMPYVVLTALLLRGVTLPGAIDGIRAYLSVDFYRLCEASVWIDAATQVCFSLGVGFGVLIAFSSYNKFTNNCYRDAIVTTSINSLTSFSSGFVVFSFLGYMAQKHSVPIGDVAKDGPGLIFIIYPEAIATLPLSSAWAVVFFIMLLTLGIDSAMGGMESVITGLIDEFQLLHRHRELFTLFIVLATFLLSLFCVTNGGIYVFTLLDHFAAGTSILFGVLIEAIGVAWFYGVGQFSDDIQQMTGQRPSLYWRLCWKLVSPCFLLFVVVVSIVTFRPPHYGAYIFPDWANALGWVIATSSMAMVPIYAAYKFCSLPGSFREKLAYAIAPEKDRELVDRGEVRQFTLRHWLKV
T4 sequence (P41595 whole entry): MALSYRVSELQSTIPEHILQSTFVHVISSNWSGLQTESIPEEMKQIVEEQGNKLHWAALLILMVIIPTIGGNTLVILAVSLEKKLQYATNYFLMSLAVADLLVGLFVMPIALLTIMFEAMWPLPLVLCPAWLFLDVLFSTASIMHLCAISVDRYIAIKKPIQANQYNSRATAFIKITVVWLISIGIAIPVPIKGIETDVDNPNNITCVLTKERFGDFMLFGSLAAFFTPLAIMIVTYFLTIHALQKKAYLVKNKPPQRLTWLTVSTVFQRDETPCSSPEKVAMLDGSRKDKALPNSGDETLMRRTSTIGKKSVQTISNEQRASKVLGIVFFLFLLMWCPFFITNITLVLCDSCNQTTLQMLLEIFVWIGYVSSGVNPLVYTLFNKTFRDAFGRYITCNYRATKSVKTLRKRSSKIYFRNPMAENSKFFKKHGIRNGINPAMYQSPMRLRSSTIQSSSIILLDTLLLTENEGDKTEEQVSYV
T9 sequence (P23975 whole entry): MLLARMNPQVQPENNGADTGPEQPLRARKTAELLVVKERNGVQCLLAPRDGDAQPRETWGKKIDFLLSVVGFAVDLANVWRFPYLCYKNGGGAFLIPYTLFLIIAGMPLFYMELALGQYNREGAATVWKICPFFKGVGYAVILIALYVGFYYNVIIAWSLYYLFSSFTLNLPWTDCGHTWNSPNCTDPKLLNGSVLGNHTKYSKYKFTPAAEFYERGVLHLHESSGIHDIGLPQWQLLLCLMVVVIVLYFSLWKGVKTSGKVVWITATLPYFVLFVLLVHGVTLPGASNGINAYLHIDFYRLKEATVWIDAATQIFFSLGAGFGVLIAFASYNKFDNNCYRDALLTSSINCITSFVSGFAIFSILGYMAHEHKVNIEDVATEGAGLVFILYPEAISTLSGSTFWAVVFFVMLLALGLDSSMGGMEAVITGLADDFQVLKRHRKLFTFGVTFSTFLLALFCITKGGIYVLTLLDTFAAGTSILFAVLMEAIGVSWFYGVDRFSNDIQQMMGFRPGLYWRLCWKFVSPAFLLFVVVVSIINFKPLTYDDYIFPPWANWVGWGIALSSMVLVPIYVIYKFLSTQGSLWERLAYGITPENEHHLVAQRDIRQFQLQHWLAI
T5 sequence (P28222 whole entry): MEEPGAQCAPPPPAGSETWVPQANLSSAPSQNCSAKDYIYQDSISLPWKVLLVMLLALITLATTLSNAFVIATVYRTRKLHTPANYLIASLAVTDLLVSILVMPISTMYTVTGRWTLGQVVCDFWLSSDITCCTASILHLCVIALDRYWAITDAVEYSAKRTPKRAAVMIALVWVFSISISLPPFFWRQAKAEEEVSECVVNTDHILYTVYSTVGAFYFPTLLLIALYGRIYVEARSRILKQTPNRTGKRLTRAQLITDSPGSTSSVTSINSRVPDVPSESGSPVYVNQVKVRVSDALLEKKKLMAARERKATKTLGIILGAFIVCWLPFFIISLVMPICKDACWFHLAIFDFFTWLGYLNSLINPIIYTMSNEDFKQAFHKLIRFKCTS
T3 sequence (P35462 whole entry): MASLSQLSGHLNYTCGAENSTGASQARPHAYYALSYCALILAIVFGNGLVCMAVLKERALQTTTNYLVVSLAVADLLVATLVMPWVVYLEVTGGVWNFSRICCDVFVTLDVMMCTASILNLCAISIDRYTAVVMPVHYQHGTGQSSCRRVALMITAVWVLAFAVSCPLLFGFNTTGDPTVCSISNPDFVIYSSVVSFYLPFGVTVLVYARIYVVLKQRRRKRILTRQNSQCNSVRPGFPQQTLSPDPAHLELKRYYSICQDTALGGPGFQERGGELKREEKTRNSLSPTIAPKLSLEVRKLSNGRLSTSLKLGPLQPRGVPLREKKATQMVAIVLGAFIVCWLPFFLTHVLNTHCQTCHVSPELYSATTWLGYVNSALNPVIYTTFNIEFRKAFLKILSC
T7 sequence (P14416 whole entry): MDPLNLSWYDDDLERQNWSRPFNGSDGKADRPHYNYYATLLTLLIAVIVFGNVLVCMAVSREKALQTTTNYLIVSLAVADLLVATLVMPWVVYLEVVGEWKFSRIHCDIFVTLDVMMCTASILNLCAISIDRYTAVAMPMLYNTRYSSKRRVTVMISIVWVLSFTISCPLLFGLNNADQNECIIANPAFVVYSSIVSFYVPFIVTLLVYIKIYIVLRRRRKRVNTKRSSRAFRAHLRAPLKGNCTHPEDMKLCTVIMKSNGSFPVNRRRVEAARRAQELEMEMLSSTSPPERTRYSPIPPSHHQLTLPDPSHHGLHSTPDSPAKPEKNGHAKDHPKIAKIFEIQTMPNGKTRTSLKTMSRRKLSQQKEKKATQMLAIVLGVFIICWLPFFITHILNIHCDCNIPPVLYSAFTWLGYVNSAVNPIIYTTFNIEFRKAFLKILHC
T11 sequence (P31645 whole entry): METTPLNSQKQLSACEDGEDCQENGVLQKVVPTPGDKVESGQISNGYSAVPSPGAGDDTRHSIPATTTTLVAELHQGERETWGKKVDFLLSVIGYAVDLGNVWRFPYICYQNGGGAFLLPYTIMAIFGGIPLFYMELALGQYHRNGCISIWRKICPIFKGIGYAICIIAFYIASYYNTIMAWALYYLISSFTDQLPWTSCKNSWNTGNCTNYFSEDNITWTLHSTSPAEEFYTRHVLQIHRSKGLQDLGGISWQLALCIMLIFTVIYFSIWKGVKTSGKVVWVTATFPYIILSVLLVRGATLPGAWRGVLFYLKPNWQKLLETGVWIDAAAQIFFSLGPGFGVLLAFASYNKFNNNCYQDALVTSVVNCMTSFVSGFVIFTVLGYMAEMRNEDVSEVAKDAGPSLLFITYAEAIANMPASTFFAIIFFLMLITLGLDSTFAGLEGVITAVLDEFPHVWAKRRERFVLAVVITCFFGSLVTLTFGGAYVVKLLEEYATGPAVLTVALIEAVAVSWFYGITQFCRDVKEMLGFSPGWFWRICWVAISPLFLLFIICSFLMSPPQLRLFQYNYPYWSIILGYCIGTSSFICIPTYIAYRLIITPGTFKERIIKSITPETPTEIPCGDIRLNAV
T6 sequence (P28565 whole entry): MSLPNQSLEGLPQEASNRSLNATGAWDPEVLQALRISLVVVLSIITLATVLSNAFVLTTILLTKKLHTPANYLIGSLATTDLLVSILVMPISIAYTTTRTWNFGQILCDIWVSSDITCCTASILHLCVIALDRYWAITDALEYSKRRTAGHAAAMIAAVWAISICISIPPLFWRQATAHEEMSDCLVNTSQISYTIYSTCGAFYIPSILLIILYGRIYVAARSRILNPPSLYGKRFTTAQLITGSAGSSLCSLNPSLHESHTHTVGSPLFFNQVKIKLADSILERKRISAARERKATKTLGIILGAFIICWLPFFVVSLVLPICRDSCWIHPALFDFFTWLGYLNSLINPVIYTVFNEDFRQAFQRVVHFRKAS
T12 sequence (P34969 whole entry): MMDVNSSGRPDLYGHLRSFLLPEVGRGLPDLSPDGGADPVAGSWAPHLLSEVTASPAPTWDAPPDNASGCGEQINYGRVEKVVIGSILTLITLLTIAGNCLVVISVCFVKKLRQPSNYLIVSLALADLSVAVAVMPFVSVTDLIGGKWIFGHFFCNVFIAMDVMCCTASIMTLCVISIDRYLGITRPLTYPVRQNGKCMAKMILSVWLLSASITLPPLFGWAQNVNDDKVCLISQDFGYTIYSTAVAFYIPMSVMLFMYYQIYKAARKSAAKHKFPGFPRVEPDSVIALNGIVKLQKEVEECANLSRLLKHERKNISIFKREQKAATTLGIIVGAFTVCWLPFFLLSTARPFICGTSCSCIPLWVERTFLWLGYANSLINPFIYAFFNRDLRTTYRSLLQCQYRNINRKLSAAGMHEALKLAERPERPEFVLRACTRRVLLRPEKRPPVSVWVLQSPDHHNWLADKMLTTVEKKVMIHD

Row | Structure (SMILES) | inhibition at 10 µM (alpha2A (h)) | HT2C, percent of control-specific binding (5-HT2C (h)) | D3, percent of control-specific binding (D3 (h)) | HT2B, percent of control-specific binding (5-HT2B (h)) | HT1B, percent of control-specific binding (5-HT1B (h)) | HT1D, percent of control-specific binding (5-HT1D (r)) | D2, percent of control-specific binding (D2 (h)) | DAT, percent of control-specific binding (DAT (h)) | NET, percent of control-specific binding (NET (h)) | MT1, percent of control-specific binding (MT1 (ML1A) (h)) | Ki [1] | SERT binding, binding curve in words [1] | α-2A, percent of control-specific binding (alpha2A (h)) | HT7, percent of control-specific binding (5-HT7 (h)) | 5-HT1A receptor binding, binding curve in words (5-HT1A receptor; FIGS. 35C-35L) | Ki (5-HT1A receptor; competition with 0.5 nM 8-hydroxy-DPAT [3H], test compound 3 nM to 1 mM, read-out: 5-HT1A, Ki)
1 | CN(C)CCCN1c2ccccc2CCc2ccccc21 [Imipramine, reference compound] | 57% | 98% | 92% | 94% | 36% | 39% | 82% | 23% | 99% | 29% |  |  |  |  |  | 
2 | O=c1n(CCCN2CCN(c3cccc(Cl)c3)CC2)nc2ccccn12 [Trazodone, reference compound] | 91% | 93% | 89% | 97% | 61% |  | 61% | 24% | −1% | 14% |  |  |  |  |  | 
3 | CNCC[C@H](Oc1cccc2ccccc12)c1cccs1 [Duloxetine, reference compound] |  | 92% | 66% | 95% | 52% | 63% | 24% |  |  | 23% |  |  |  |  |  | 
4 | Cc1ccc(Sc2ccccc2N2CCNCC2)c(C)c1 [vortioxetine, reference compound] | 62% | 99% | 88% | 97% | 101% | 100% | 51% | 90% | 99% | 26% | 0.00203 µM | very tight interaction |  |  |  | 
5 | COc1ccc2cccc(CCNC(C)=O)c2c1 [Agomelatine, reference compound] | 2% | 92% | 6% | 93% | −9% | 10% | −4% | 1% | 1% | 99% |  |  |  |  |  | 
6 | COc1cc(CC(C)N)c(OC)cc1Br (centres unmarked) [DOB, reference compound] |  |  | 25% | 97% | 20% | 84% | 9% | 3% | 6% | −3% |  |  | 66% | 65% |  | 
7 | CC(NC(C)(C)C)C(=O)c1cccc(Cl)c1 (centres unmarked) [Bupropion, reference compound] | 2% | 1% | 3% | −2% | 9% | −1% | −5% | 92% |  | 83% |  |  |  |  |  | 
8 | COc1ccc2[nH]cc(CCNC(C)=O)c2c1 [Melatonin, reference compound] | -7% | 19% | 2% | 52% | 0% | 13% | −20% | 4% | −2% | 98% |  |  |  |  |  | 
9 | N[C@@H](Cc1c[nH]c2ccccc12)C(=O)O [tryptophan, reference compound] | -4% | 25% | −23% | 0% | −22% | 3% | −19% | 1% | 1% | −2% | > 1000 µM | no binding to SERT |  |  | no binding | > 1 mM
10 | N#Cc1ccc2[nH]cc(CCCCN3CCN(c4ccc5oc(C(N)=O)cc5c4)CC3)c2c1 [Vilazodone, reference compound] | 65% | 92% | 99% | 96% | 67% | 97% | 97% | 98% | 99% | 84% |  |  |  |  |  | 
